In brackets after ≈: the same amount, converted by molar mass.
Key:
Format in all cases: cell-based
[1] = tested on: Botrytis cinerea T4; settings: for MIC, in-vitro antifungal activity against B. cinerea: 48 hours
[2] = tested on: Zymoseptoria tritici IPO323
[3] = tested on: Fusarium graminearum PH-1; settings: for MIC, in-vitro antifungal activity against F. graminearum: F. graminearum PH-1, 48 hours; for F. graminearum PH-1 MIC Day1: MIC Day 1, 96-well plate, resazurin cell viability

Row | Molecule | B. cinerea T4 MIC Day1 [1] | MIC, in-vitro antifungal activity against B. cinerea [1] | MIC against Z. tritici on day 1 [2] | MIC against Z. tritici on day 7 [2] | MIC against Z. tritici on day 14 [2] | Z. tritici IPO323 MIC Day 1 [2] | Z. tritici IPO323 MIC Day 7 [2] | Z. tritici IPO323 MIC Day 14 [2] | MIC, in-vitro antifungal activity against F. graminearum [3] | F. graminearum PH-1 MIC Day1 [3]
1 | C[C@@H]1[C@H](O)[C@@H](C)/C=C/C=C/C=C/C=C/C=C/C=C/C=C/[C@H](O[C@@H]2O[C@H](C)[C@@H](O)[C@H](N)[C@@H]2O)C[C@@H]2O[C@](O)(C[C@@H](O)C[C@@H](O)[C@H](O)CC[C@@H](O)C[C@@H](O)CC(=O)O[C@H]1C)C[C@H](O)[C@H]2C(=O)O [Amphotericin-B, reference compound] | 3 µM | 3 µM (≈ 2.77 µg/mL) | 0.84 µM (≈ 0.776 µg/mL) | 5.44 µM (≈ 5.03 µg/mL) | 8.92 µM (≈ 8.24 µg/mL) | 0.84 µM | 5.44 µM | 8.92 µM | 6 µM (≈ 5.54 µg/mL) | 6 µM
2 | PD81.1.1: Pinus sylvestris wild-type defensin SEQ ID NO: 534 with N-terminal alanine, expressed in Pichia pastoris (RMCKTPSGKFKGYCVSSTNCKNVCRTEGFPTGSCDFHVASRKCYCYKPC; N-terminal alanine added; listed as Pinus sylvestris) | 1 µM | 1 µM |  |  |  | 0.5 µM | 0.75 µM | 3 µM |  | 1.5 µM
3 | PD82.1.1: Pinus sylvestris wild-type defensin SEQ ID NO: 538 with N-terminal alanine, expressed in Pichia pastoris (RTCLSKSHRFHGYCVRSSSCKEICQTERFLSGECRHTHLGNRRCFCEKPC; N-terminal alanine added; listed as Pinus sylvestris) | 1.125 µM |  |  |  |  | 0.625 µM | 2 µM | 3.5 µM |  | 1.5 µM
4 | PD83.1.1: Eucalyptus grandis wild-type defensin SEQ ID NO: 542 with N-terminal alanine, expressed in Pichia pastoris (RMCESQSHKFHGLCMSDRTCVVVCKEEDFDDGKCRGFRHRCFCRKPC; N-terminal alanine added; listed as Eucalyptus grandis) | >12 µM |  |  |  |  |  |  |  |  | >12 µM
5 | PD84.1.1: Striga asiatica wild-type defensin SEQ ID NO: 546 with N-terminal alanine, expressed in Pichia pastoris (KICEYKSERFWGVCLSDIKCADVCKDESFESGDCQGLRRRCMCYNHC; N-terminal alanine added; listed as Striga asiatica) | >12 µM |  |  |  |  | >12 µM | >12 µM | >12 µM |  | >12 µM
6 | PD85.1.1: Panax ginseng wild-type defensin SEQ ID NO: 551 with N-terminal alanine, expressed in Pichia pastoris (KLCEKASLTWSGKCGNTQNCDKQCQNWESAKHGACHKRPTWKCFCYSDC; N-terminal alanine added; Panax ginseng) | >12 µM |  |  |  |  | 0.625 µM | 1.75 µM | 10 µM |  | >12 µM
7 | PD86.1.1: Erythranthe guttata wild-type defensin SEQ ID NO: 555 with N-terminal alanine, expressed in Pichia pastoris (SLCETPSRYFNGICFSRRNCGAICEKEGFSSGRCKAFKCVCGKDC; N-terminal alanine added; listed as Erythranthe guttata) | 12 µM |  |  |  |  | 7 µM | 12 µM | >12 µM |  | 6 µM
8 | PD87.1.1: Raphanus sativus wild-type defensin SEQ ID NO: 560 with N-terminal alanine, expressed in Pichia pastoris (KLCQRPSGTWSGVCGNNNACKNQCIRLEKARHGSCNYVFPAHKCICYFPC; N-terminal alanine; listed as Raphanus sativus) | 0.375 µM |  |  |  |  | 0.375 µM | 1.5 µM | 2.5 µM | 0.75 µM | 0.75 µM
9 | PD88.1.1: Fraxinus excelsior wild-type defensin SEQ ID NO: 565 with N-terminal alanine, expressed in Pichia pastoris (KHCAKLSKGWHGFCAPHKCSRYCIHHEGAYDGACLKHHHSKHIGCYCYYRHC; N-terminal alanine; Fraxinus excelsior) | 0.75 µM |  |  |  |  | 1.5 µM | 3 µM | 4 µM |  | >12 µM
10 | PD89.1.2: Crambe maritima wild-type defensin SEQ ID NO: 569 with N-terminal alanine, expressed in Pichia pastoris (KLCRKPSGTWSGLCANSDSCRKQCINLEKAKDGSCKYKFPAHKCFCYY; N-terminal alanine; listed as Crambe maritima) | 2.5 µM |  |  |  |  | 1.5 µM | 6 µM | 12 µM |  | 12 µM
11 | PD92.1.1: Trifolium pratense wild-type defensin SEQ ID NO: 583 with N-terminal alanine, expressed in Pichia pastoris (RKCESKRRWIYGNCLSDEKCASDCLVKGFLFGKCRGYDNRCYCKKPRC; N-terminal alanine; Trifolium pratense) | 3 µM |  |  |  |  | 0.75 µM | 1.75 µM | 2.5 µM |  | 3 µM
12 | PD93.1.1: Fragaria vesca wild-type defensin SEQ ID NO: 588 with N-terminal alanine, expressed in Pichia pastoris (KICEVPSKTFKGLCVKDRNCVVRCHSEGYGNGKCSHVRRQCMCLKICD; N-terminal alanine; listed as Fragaria vesca) | 6 µM |  |  |  |  | 2 µM | 5 µM | 8 µM |  | >12 µM
13 | PD94.1.1: Solanum lycopersicum wild-type defensin SEQ ID NO: 593 with N-terminal alanine, expressed in Pichia pastoris (KLCQYHSETFHGVCVTGNNCNRHCQRENFEGGRCHGIRHYRCVCYRTC; N-terminal alanine; listed as Solanum lycopersicum) | >12 µM |  |  |  |  | >12 µM | >12 µM | >12 µM |  | >12 µM
14 | PD95.1.1: Mimulus guttatus wild-type defensin SEQ ID NO: 598 with N-terminal alanine, expressed in Pichia pastoris (RHCESPSHRFKGICVRKSNCAAICQTEGFSSGKCRGFRSRCVCIKHC; N-terminal alanine; listed as Mimulus guttatus) | 0.75 µM |  |  |  |  |  |  |  | 0.75 µM | 0.75 µM
15 | PD96.1.1: Thlaspi arvense wild-type defensin SEQ ID NO: 603 with N-terminal alanine, expressed in Pichia pastoris (RMCESKSHEFKGFCTKWRICRDVCITEGFTDGGCHGVLRHCVCKKPCLLSN; N-terminal alanine; Thlaspi arvense) | 6 µM |  |  |  |  | 2.5 µM | 10 µM | >12 µM | 0.75 µM | 0.75 µM
16 | PD99.1.1: Theobroma cacao wild-type defensin SEQ ID NO: 616 with N-terminal alanine, expressed in Pichia pastoris (KLCQKRSKTWTGPCIKTKNCDHQCRKWEKAQHGACHWQWPGFACFCYVNC; N-terminal alanine; Theobroma cacao) | 0.75 µM |  |  |  |  |  |  |  | 0.75 µM | 0.75 µM
17 | PD100.1.1: Prunus armeniaca wild-type defensin SEQ ID NO: 620 with N-terminal alanine, expressed in Pichia pastoris (QRGCKQASKSMTTCTAHPECDKKCKGEKAKMGLCRADGPKGKKCWCYMC; N-terminal alanine added; listed as Prunus armeniaca) | 6 µM |  |  |  |  | 1 µM | 4 µM | 8 µM |  | 6 µM
18 | PD114.1.1: Lupinus albus wild-type defensin SEQ ID NO: 679 with N-terminal alanine, expressed in Pichia pastoris (RTCKSKSQRYKGSCYSDNNCAIICEGEGFTGGKCHGFFCKCWCKRPCL; N-terminal alanine added; listed as Lupinus albus) | >12 µM |  |  |  |  |  |  |  |  | >12 µM
19 | PD120.1.1: Setaria italica wild-type defensin SEQ ID NO: 706 with N-terminal alanine, expressed in Pichia pastoris (DRCETHSRTYKGRCNNHNCWSICITEGNTGGFCKGTLLLKCMCTSEC; N-terminal alanine added; listed as Setaria italica) | >12 µM |  |  |  |  |  |  |  |  | 12 µM
